Measured values published in ChEMBL document CHEMBL1649119, “Daptomycin pharmacokinetics in adult oncology patients with neutropenic fever” (Antimicrob Agents Chemother, 2009).

What was measured:
[1] = Half life in moderately obese adult human at 4 mg/kg, iv administered as single dose 30 mins infusion; type: ADME, organism-based; parameters: dose 4 mg/kg, route intravenous; conditions: in vivo
[2] = Mean residence time in adult human with hepatic impairment at 6 mg/kg, iv administered as single dose 30 mins infusion; type: ADME, organism-based; parameters: dose 6 mg/kg, route intravenous; conditions: in vivo
[3] = Cmax in healthy human at 4 mg/kg, iv administered as 30 mins infusion every 24 hrs measured on day 1; type: ADME, organism-based; parameters: dose 4 mg/kg, route intravenous; conditions: in vivo
[4] = AUC (0 to infinity) in healthy adult human at 6 mg/kg, iv administered as single dose 30 mins infusion; type: ADME, organism-based; parameters: dose 6 mg/kg, route intravenous, time infinity; conditions: plasma
[5] = Drug excretion in young healthy human urine assessed as unchanged drug at 4 mg/kg, iv administered as single dose 30 mins infusion; type: ADME, organism-based; parameters: dose 4 mg/kg, route intravenous; conditions: read-out: Drug uptake
Homo sapiens [6] = assay: Clearance in healthy human at 4 mg/kg, iv administered as single dose 30 mins infusion; type: ADME, organism-based; parameters: dose 4 mg/kg, route intravenous; conditions: in vivo, 0.5 h
[7] = AUC (0 to infinity) in healthy human subjects at 12 mg/kg, iv administered as 30 mins infusion every 24 hrs measured on day 4; type: ADME, organism-based; parameters: time infinity, dose 12 mg/kg, route intravenous; conditions: plasma
[8] = Cmax in healthy human at 4 mg/kg, iv administered as single dose 30 mins infusion; type: ADME, organism-based; parameters: dose 4 mg/kg, route intravenous; conditions: in vivo
Homo sapiens [9] = assay: Volume of distribution in central compartment in healthy human at 4 mg/kg, iv administered as single dose 30 mins infusion; type: ADME, organism-based; parameters: dose 4 mg/kg, route intravenous; conditions: in vivo, 0.5 h
[10] = Clearance in healthy human subjects at 10 mg/kg, iv administered as 30 mins infusion every 24 hrs measured on day 14; type: ADME, organism-based; parameters: dose 10 mg/kg, route intravenous; conditions: in vivo
[11] = Clearance in healthy human at 8 mg/kg, iv administered as 30 mins infusion every 24 hrs measured on day 1; type: ADME, organism-based; parameters: dose 8 mg/kg, route intravenous; conditions: in vivo
[12] = Cmax in healthy human subjects at 12 mg/kg, iv administered as 30 mins infusion every 24 hrs measured on day 1; type: ADME, organism-based; parameters: dose 12 mg/kg, route intravenous; conditions: in vivo
[13] = Clearance in healthy human at 4 mg/kg, iv administered as 30 mins infusion every 24 hrs measured on day 1; type: ADME, organism-based; parameters: dose 4 mg/kg, route intravenous; conditions: in vivo
[14] = Volume of distribution at steady state in young healthy human at 4 mg/kg, iv administered as single dose 30 mins infusion; type: ADME, organism-based; parameters: dose 4 mg/kg, route intravenous; conditions: in vivo, read-out: Vdss
[15] = Half life in healthy human at 8 mg/kg, iv administered as 30 mins infusion every 24 hrs measured on day 7; type: ADME, organism-based; parameters: dose 8 mg/kg, route intravenous; conditions: in vivo
[16] = AUC (0 to infinity) in healthy human subjects at 12 mg/kg, iv administered as 30 mins infusion every 24 hrs measured on day 1; type: ADME, organism-based; parameters: time infinity, dose 12 mg/kg, route intravenous; conditions: plasma
[17] = Plasma concentration in morbidly obese adult human at 4 mg/kg, iv administered as single dose 30 mins infusion measured after 24 hrs; type: ADME, organism-based; parameters: dose 4 mg/kg, route intravenous
[18] = Cmax in healthy human at 8 mg/kg, iv administered as 30 mins infusion every 24 hrs measured on day 14; type: ADME, organism-based; parameters: dose 8 mg/kg, route intravenous; conditions: in vivo
[19] = Clearance in healthy human subjects at 6 mg/kg, iv administered as 30 mins infusion every 24 hrs measured on day 4; type: ADME, organism-based; parameters: dose 6 mg/kg, route intravenous; conditions: in vivo
[20] = Volume of distribution at steady state in adult human subjects at 6 mg/kg, iv administered as single dose 30 mins infusion; type: ADME, organism-based; parameters: dose 6 mg/kg, route intravenous; conditions: in vivo, read-out: Vdss
[21] = AUC (0 to infinity) in healthy human at 6 mg/kg, iv administered as 30 mins infusion every 24 hrs measured on day 1; type: ADME, organism-based; parameters: time infinity, dose 6 mg/kg, route intravenous; conditions: plasma
[22] = Half life in healthy human subjects at 10 mg/kg, iv administered as 30 mins infusion every 24 hrs measured on day 4; type: ADME, organism-based; parameters: dose 10 mg/kg, route intravenous; conditions: in vivo
[23] = AUC (0 to infinity) in healthy human subjects at 12 mg/kg, iv administered as 30 mins infusion every 24 hrs measured on day 14; type: ADME, organism-based; parameters: time infinity, dose 12 mg/kg, route intravenous; conditions: plasma
[24] = Half life in old healthy human at 4 mg/kg, iv administered as single dose 30 mins infusion; type: ADME, organism-based; parameters: dose 4 mg/kg, route intravenous; conditions: in vivo
[25] = Cmax in young healthy human at 4 mg/kg, iv administered as single dose 30 mins infusion; type: ADME, organism-based; parameters: dose 4 mg/kg, route intravenous; conditions: in vivo
[26] = Apparent volume of distribution during terminal phase in healthy human at 8 mg/kg, iv administered as 30 mins infusion every 24 hrs measured on day 1; type: ADME, organism-based; parameters: dose 8 mg/kg, route intravenous; conditions: in vivo
[27] = Unbound fraction in healthy human plasma at 6 mg/kg, iv administered as 30 mins infusion every 24 hrs measured on day 7; type: ADME, organism-based; parameters: dose 6 mg/kg, route intravenous
[28] = Clearance in healthy human at 4 mg/kg, iv administered as 30 mins infusion every 24 hrs measured on day 7; type: ADME, organism-based; parameters: dose 4 mg/kg, route intravenous; conditions: in vivo
Homo sapiens [29] = assay: Unbound clearance in healthy human at 4 mg/kg, iv administered as 30 mins infusion every 24 hrs measured on day 1; type: ADME, organism-based; parameters: dose 4 mg/kg, route intravenous; conditions: in vivo
[30] = Half life in healthy human at 4 mg/kg, iv administered as 30 mins infusion every 24 hrs measured on day 1; type: ADME, organism-based; parameters: dose 4 mg/kg, route intravenous; conditions: in vivo
[31] = Cmax in healthy human at 6 mg/kg, iv administered as 30 mins infusion every 24 hrs measured on day 7; type: ADME, organism-based; parameters: dose 6 mg/kg, route intravenous; conditions: in vivo
[32] = Renal clearance in morbidly obese adult human at 4 mg/kg, iv administered as single dose 30 mins infusion; type: ADME, organism-based, Kidney; parameters: dose 4 mg/kg, route intravenous; conditions: in vivo, read-out: CL_renal (converted)
[33] = AUC (0 to infinity) in old healthy human at 4 mg/kg, iv administered as single dose 30 mins infusion; type: ADME, organism-based; parameters: dose 4 mg/kg, route intravenous, time infinity; conditions: plasma
[34] = Clearance in healthy human subjects at 6 mg/kg, iv administered as 30 mins infusion every 24 hrs measured on day 1; type: ADME, organism-based; parameters: dose 6 mg/kg, route intravenous; conditions: in vivo
[35] = Drug excretion in old healthy human urine assessed as unchanged drug at 4 mg/kg, iv administered as single dose 30 mins infusion; type: ADME, organism-based; parameters: dose 4 mg/kg, route intravenous; conditions: read-out: Drug uptake
[36] = Renal clearance in young healthy human at 4 mg/kg, iv administered as single dose 30 mins infusion; type: ADME, organism-based, Kidney; parameters: dose 4 mg/kg, route intravenous; conditions: in vivo, read-out: CL_renal (converted)
[37] = Apparent volume of distribution in young healthy human at 4 mg/kg, iv administered as single dose 30 mins infusion; type: ADME, organism-based; parameters: dose 4 mg/kg, route intravenous; conditions: in vivo
[38] = Unbound fraction in healthy human plasma at 6 mg/kg, iv administered as 30 mins infusion every 24 hrs measured on day 1; type: ADME, organism-based; parameters: dose 6 mg/kg, route intravenous
[39] = Clearance in nonobese human at 4 mg/kg, iv administered as single dose 30 mins infusion; type: ADME, organism-based; parameters: dose 4 mg/kg, route intravenous; conditions: in vivo
[40] = Half life in healthy human at 4 mg/kg, iv administered as 30 mins infusion every 24 hrs measured on day 7; type: ADME, organism-based; parameters: dose 4 mg/kg, route intravenous; conditions: in vivo
[41] = Apparent volume of distribution during terminal phase in healthy human subjects at 6 mg/kg, iv administered as 30 mins infusion every 24 hrs measured on day 4; type: ADME, organism-based; parameters: dose 6 mg/kg, route intravenous; conditions: in vivo
Homo sapiens [42] = assay: Unbound clearance in healthy human at 4 mg/kg, iv administered as 30 mins infusion every 24 hrs measured on day 7; type: ADME, organism-based; parameters: dose 4 mg/kg, route intravenous; conditions: in vivo
[43] = Unbound fraction in healthy human plasma at 4 mg/kg, iv administered as 30 mins infusion every 24 hrs measured on day 1; type: ADME, organism-based; parameters: dose 4 mg/kg, route intravenous
[44] = Half life in nonobese adult human at 4 mg/kg, iv administered as single dose 30 mins infusion; type: ADME, organism-based; parameters: dose 4 mg/kg, route intravenous; conditions: in vivo
[45] = Mean residence time in old healthy human at 4 mg/kg, iv administered as single dose 30 mins infusion; type: ADME, organism-based; parameters: dose 4 mg/kg, route intravenous; conditions: in vivo
[46] = Half life in healthy human subjects at 6 mg/kg, iv administered as 30 mins infusion every 24 hrs measured on day 4; type: ADME, organism-based; parameters: dose 6 mg/kg, route intravenous; conditions: in vivo
[47] = Cmax in healthy human subjects at 8 mg/kg, iv administered as 30 mins infusion every 24 hrs measured on day 1; type: ADME, organism-based; parameters: dose 8 mg/kg, route intravenous; conditions: in vivo
[48] = Volume of distribution at steady state in nonobese adult human at 4 mg/kg, iv administered as single dose 30 mins infusion; type: ADME, organism-based; parameters: dose 4 mg/kg, route intravenous; conditions: in vivo, read-out: Vdss
[49] = Cmax in moderately obese adult human at 4 mg/kg, iv administered as single dose 30 mins infusion; type: ADME, organism-based; parameters: dose 4 mg/kg, route intravenous; conditions: in vivo

CCCCCCCCCC(=O)N[C@@H](Cc1c[nH]c2ccccc12)C(=O)N[C@H](CC(N)=O)C(=O)N[C@@H](CC(=O)O)C(=O)N[C@@H]1C(=O)NCC(=O)N[C@@H](CCCN)C(=O)N[C@@H](CC(=O)O)C(=O)N[C@H](C)C(=O)N[C@@H](CC(=O)O)C(=O)NCC(=O)N[C@H](CO)C(=O)N[C@@H]([C@H](C)CC(=O)O)C(=O)N[C@@H](CC(=O)c2ccccc2N)C(=O)O[C@@H]1C
half-life [1]: 440 min | MRT [2]: 12 h | Cmax [3]: 54.6 µg/mL | AUC(0-inf) [4]: 598 µg·h/mL | dose excreted at 0.5 h [5]: 42.3% | CL (Homo sapiens [6]): 9.84 mL/min | AUC(0-inf) [7]: 1280 µg·h/mL | Cmax [8]: 77.5 µg/mL | Vd (Homo sapiens [9]): 3420 mL | clearance [10]: 0.125 mL/min/kg | clearance [11]: 0.12 mL/min/kg | Cmax [12]: 165 µg/mL | clearance [13]: 0.16 mL/min/kg | Vd [14]: 0.14 L/kg | half-life [15]: 540 min | AUC(0-inf) [16]: 1270 µg·h/mL | concentration at 24 h [17]: 5880 ng/mL | Cmax [18]: 130 µg/mL | clearance [19]: 0.152 mL/min/kg | Vd [20]: 0.08 L/kg | AUC(0-inf) [21]: 705 µg·h/mL | half-life [22]: 474 min | AUC(0-inf) [23]: 1290 µg·h/mL | half-life [24]: 711 min | Cmax [25]: 42300 ng/mL | Vd [26]: 0.099 L/kg | fraction unbound at 7 day [27]: 0.08 | clearance [28]: 0.138 mL/min/kg | CL (Homo sapiens [29]): 84.6 mL/h/kg | half-life [30]: 444 min | Cmax [31]: 98.6 µg/mL | CL renal at 0.5 h [32]: 0.134 mL/min/kg | AUC(0-inf) [33]: 474 µg·h/mL | clearance [34]: 0.165 mL/min/kg | dose excreted at 0.5 h [35]: 34.3% | CL renal at 0.5 h [36]: 0.12 mL/min/kg | Vd [37]: 0.15 L/kg | fraction unbound at 1 day [38]: 0.07 | clearance [39]: 0.17 mL/min/kg | half-life [40]: 486 min | Vd [41]: 0.101 L/kg | CL (Homo sapiens [42]): 62.9 mL/h/kg | fraction unbound at 1 day [43]: 0.08 | half-life [44]: 410 min | MRT [45]: 15.9 h | half-life [46]: 474 min | Cmax [47]: 106 µg/mL | Vd [48]: 0.13 L/kg | Cmax [49]: 57.8 µg/mL
